The values that follow are results of earlier work, collected in patent US20220347117A1 (priority 2021, published 2022).

SMILES strings stand for the structures.

With `C=CCN1CC[C@]23c4c5ccc(O)c4O[C@H]2C(=O)CC[C@@]3(O)[C@H]1C5` [naloxone], the pKa entry is recorded as “about 7.94”.
